Here are results for 1 molecule from BindingDB's records for patent US11466047 (Merck Sharp & Dohme, 2022).

The assay concerns the target T1, Stimulator of interferon genes protein [R71H,G230A,H232R,R293Q] (Homo sapiens, UniProt Q86WV6, G230A/H232R/R293Q/R71H).
T1 construct: gene STING1
Nature of the assay: 3H-cGAMP Filtration Binding Assay. On the procedure: The compounds were serially titrated by the Hamilton STARPlus CORE in a 96-well plate (Greiner, #651201) using a 1:3 ten-point dose response format. After compound preparation, a 2.2 ug/ml working concentration of STING membrane (SEQ. ID. No. 1) was prepared by diluting concentrated membrane into assay buffer (lx PBS; Invitrogen #SH30028.02) and douncing 7× using a manual tissue homogenizer (Wheaton, #357546). 148 uL of prepared membrane was then manually added to each well of a 96-well deep-well polypropylene plate (Fisher Scientific, #12-566-121). Following membrane addition, 2 uL of either titrated test compound, DMSO control (Sigma #276855), or cold cGAMP control was added to the appropriate wells using a BIOMEK FX. Compound and membrane then preincubated for 60 min at RT to allow compound binding to equilibrate. Following equilibration, 8 nM of [3H]c-GAMP ligand was prepared by diluting into assay buffer, and 50 uL of this working stock was then manually added to each well of the assay plate. Plates were then incubated at RT for 60 min, and the contents of each assay plate were then filtered through a 96-well GF/B filter plate (PerkinElmer, #6005250) using a TOMTEC MACH III Cell Harvester equipped with 20 mM HEPES buffer (Fisher Scientific, #BP299500). […] Tritium levels for each reaction well were then measured using a PerkinElmer TopCount plate reader.

The structures appear in SMILES notation. Bounds are passed on as bounds.

T1 sequence (Q86WV6 whole entry R71H/G230A/H232R/R293Q, looked up): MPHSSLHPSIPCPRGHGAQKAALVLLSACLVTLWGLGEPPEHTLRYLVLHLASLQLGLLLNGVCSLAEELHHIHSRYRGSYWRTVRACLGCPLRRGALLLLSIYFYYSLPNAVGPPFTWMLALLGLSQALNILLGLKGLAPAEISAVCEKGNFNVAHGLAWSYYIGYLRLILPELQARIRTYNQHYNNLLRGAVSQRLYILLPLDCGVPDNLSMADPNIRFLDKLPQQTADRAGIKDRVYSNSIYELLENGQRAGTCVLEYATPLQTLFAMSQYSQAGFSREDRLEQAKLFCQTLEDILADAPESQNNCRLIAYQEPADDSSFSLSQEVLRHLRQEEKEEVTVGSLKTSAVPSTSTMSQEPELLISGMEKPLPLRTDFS

What is called EC50 is the concentration that produces a half-maximal response. A higher EC50 goes with weaker potency. As to `Nc1nc2c(ncn2[C@@H]2O[C@@H]3COP(=S)(S)O[C@H]4[C@H](F)[C@H](n5cnc6c(=O)[nH]cnc65)O[C@@H]4COP(O)(=S)O[C@@H]2[C@@H]3F)c(=O)[nH]1` (stereo partly specified) [US11466047, Example 27], the half-maximal effective concentration (EC50) is under 1 nM.
